{"source": "patent US20150239889A1", "about": "“PYRAZOLOPYRIMIDINE COMPOUND” (MITSUBISHI TANABE PHARMA CORPORATION, priority 2012, published 2015)"}
{"molecular_target": "T1, human HIF-PHD3 (Homo sapiens, UniProt Q9H6Z9)", "T1 construct": "purchased CrystalGenomics Ltd", "T1 sequence (Q9H6Z9 whole entry)": "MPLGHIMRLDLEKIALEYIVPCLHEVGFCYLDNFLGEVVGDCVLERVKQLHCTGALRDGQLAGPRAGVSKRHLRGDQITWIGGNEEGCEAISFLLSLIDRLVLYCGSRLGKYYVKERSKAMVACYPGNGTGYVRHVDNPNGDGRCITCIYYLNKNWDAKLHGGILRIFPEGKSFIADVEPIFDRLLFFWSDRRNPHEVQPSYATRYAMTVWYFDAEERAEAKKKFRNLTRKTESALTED", "assay": "HIF-PHD inhibition assay (fluorescence polarization), human HIF-PHD3", "format": "biochemical", "conditions": "2-oxoglutaric acid 166 μmol/L", "in_short": "(§1)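 Activity was derived as the fluorescence polarization (mP) after enzyme addition minus that measured before enzyme addition. Probe bore a 5′-fluoresceinamide (FAM) label with an aminocaproic acid (ACA) linker.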", "units": {"IC50": "nM"}}
{"smiles": "Cc1ccc2cc(CCn3ncc4nc(-n5cc(C(=O)O)cn5)nc(O)c43)ccc2c1C", "note": "[Example 129]", "IC50": 160}
{"smiles": "COc1ccccc1-c1ccc(Cn2ncc3nc(-n4cc(C(=O)O)cn4)nc(O)c32)cc1F", "note": "[Example 95]", "IC50": 86}
{"smiles": "Cc1cccc(C)c1-c1ccc(Cn2ncc3nc(-n4cc(C(=O)O)cn4)nc(O)c32)cc1", "note": "[Example 68]", "IC50": 160}
{"smiles": "C[C@@H](C1CCCCC1)n1nc(F)c2nc(-n3cc(C(=O)O)cn3)nc(O)c21", "note": "[Example 468]", "IC50": 300}
{"smiles": "CC(C)(Cn1ncc2nc(-n3cc(C(=O)O)cn3)nc(O)c21)Oc1ccc2ccccc2c1", "note": "[Example 213]", "IC50": 110}
{"smiles": "CC(C)(CCn1ncc2nc(-n3cc(C(=O)O)cn3)nc(O)c21)c1ccc2ccccc2c1", "note": "[Example 132]", "IC50": 400}
{"smiles": "Cc1ccc(O[C@H]2CC[C@H](Cn3ncc4nc(-n5cc(C(=O)O)cn5)nc(O)c43)CC2)cc1", "note": "[Example 151]", "IC50": 220}
{"smiles": "O=C(O)c1cnn(-c2nc(O)c3c(cnn3Cc3ccc(-c4ccccc4C(F)(F)F)cc3F)n2)c1", "note": "[Example 84]", "IC50": 200}
{"smiles": "O=C(O)c1cnn(-c2nc(O)c3c(cnn3Cc3cc(F)cc(Br)c3)n2)c1", "note": "[Example 15]", "IC50": 290}
{"smiles": "Cc1ccc(OC(C)(C)Cn2ncc3nc(-n4cc(C(=O)O)cn4)nc(O)c32)c2c1CCC2", "note": "[Example 211]", "IC50": 180}
{"smiles": "C[C@@H](c1ccc(C(F)(F)F)cc1)n1ncc2nc(-n3cc(C(=O)O)cn3)nc(O)c21", "note": "[Example 19]", "IC50": 720}
{"smiles": "CCc1ccc2cc(CCn3ncc4nc(-n5cc(C(=O)O)cn5)nc(O)c43)ccc2c1", "note": "[Example 128]", "IC50": 180}
{"smiles": "O=C(O)c1cnn(-c2nc(O)c3c(n2)c(F)nn3C2CCCCC2)c1", "note": "[Example 478]", "IC50": 370}
{"smiles": "O=C(O)c1cnn(-c2nc(O)c3c(n2)c(C(F)(F)F)nn3CC2CCCCC2)c1", "note": "[Example 477]", "IC50": 830}
{"smiles": "O=C(O)c1cnn(-c2nc(O)c3c(cnn3Cc3ccc(-c4ccccc4C(F)(F)F)cc3)n2)c1", "note": "[Example 61]", "IC50": 180}
{"smiles": "Cc1c(CCn2ncc3nc(-n4cc(C(=O)O)cn4)nc(O)c32)ccc2ccccc12", "note": "[Example 126]", "IC50": 420}
{"smiles": "O=C(O)c1cnn(-c2nc(O)c3c(cnn3C[C@H]3CC[C@H](c4ccc(Cl)cc4)CC3)n2)c1", "note": "[Example 156]", "IC50": 160}
{"smiles": "Cc1ccc(C(C(C)C)n2ncc3nc(-n4cc(C(=O)O)cn4)nc(O)c32)cc1", "note": "(single isomer, unassigned) [Example 26]", "IC50": 1500}
{"smiles": "O=C(O)c1cnn(-c2nc(O)c3c(cnn3Cc3ccc(-c4ccccc4)cc3F)n2)c1", "note": "[Example 78]", "IC50": 68}
{"smiles": "C[C@@H](c1ccc2ccccc2c1)n1ncc2nc(-n3cc(C(=O)O)cn3)nc(O)c21", "note": "[Example 31]", "IC50": 270}
{"molecular_target": "T2, human HIF-PHD2 (Homo sapiens, UniProt Q9GZT9)", "T2 construct": "purchased CrystalGenomics Ltd", "T2 sequence (Q9GZT9 2-426 limits assumed)": "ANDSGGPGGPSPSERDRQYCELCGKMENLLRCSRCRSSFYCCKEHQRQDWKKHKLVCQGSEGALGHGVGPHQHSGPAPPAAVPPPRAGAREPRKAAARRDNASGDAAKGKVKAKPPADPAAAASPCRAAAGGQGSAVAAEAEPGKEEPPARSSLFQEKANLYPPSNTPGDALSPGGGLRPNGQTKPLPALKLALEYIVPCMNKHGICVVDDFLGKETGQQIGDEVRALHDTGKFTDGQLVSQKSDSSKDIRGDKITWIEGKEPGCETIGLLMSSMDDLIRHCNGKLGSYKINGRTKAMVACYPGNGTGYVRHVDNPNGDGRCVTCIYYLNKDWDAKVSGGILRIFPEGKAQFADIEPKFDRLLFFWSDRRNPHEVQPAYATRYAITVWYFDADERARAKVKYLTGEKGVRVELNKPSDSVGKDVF", "assay": "HIF-PHD inhibition assay (fluorescence polarization), human HIF-PHD2", "format": "biochemical", "conditions": "2-oxoglutaric acid 3.33 μmol/L", "in_short": "as §1", "units": {"IC50": "nM"}}
{"smiles": "Cc1ccc2cc(CCn3ncc4nc(-n5cc(C(=O)O)cn5)nc(O)c43)ccc2c1C", "note": "[Example 129]", "IC50": 21}
{"smiles": "COc1ccccc1-c1ccc(Cn2ncc3nc(-n4cc(C(=O)O)cn4)nc(O)c32)cc1F", "note": "[Example 95]", "IC50": 24}
{"smiles": "Cc1cccc(C)c1-c1ccc(Cn2ncc3nc(-n4cc(C(=O)O)cn4)nc(O)c32)cc1", "note": "[Example 68]", "IC50": 23}
{"smiles": "C[C@@H](C1CCCCC1)n1nc(F)c2nc(-n3cc(C(=O)O)cn3)nc(O)c21", "note": "[Example 468]", "IC50": 25}
{"smiles": "CC(C)(Cn1ncc2nc(-n3cc(C(=O)O)cn3)nc(O)c21)Oc1ccc2ccccc2c1", "note": "[Example 213]", "IC50": 17}
{"smiles": "CC(C)(CCn1ncc2nc(-n3cc(C(=O)O)cn3)nc(O)c21)c1ccc2ccccc2c1", "note": "[Example 132]", "IC50": 67}
{"smiles": "Cc1ccc(O[C@H]2CC[C@H](Cn3ncc4nc(-n5cc(C(=O)O)cn5)nc(O)c43)CC2)cc1", "note": "[Example 151]", "IC50": 13}
{"smiles": "O=C(O)c1cnn(-c2nc(O)c3c(cnn3Cc3ccc(-c4ccccc4C(F)(F)F)cc3F)n2)c1", "note": "[Example 84]", "IC50": 13}
{"smiles": "O=C(O)c1cnn(-c2nc(O)c3c(cnn3Cc3cc(F)cc(Br)c3)n2)c1", "note": "[Example 15]", "IC50": 52}
{"smiles": "Cc1ccc(OC(C)(C)Cn2ncc3nc(-n4cc(C(=O)O)cn4)nc(O)c32)c2c1CCC2", "note": "[Example 211]", "IC50": 26}
{"smiles": "C[C@@H](c1ccc(C(F)(F)F)cc1)n1ncc2nc(-n3cc(C(=O)O)cn3)nc(O)c21", "note": "[Example 19]", "IC50": 26}
{"smiles": "CCc1ccc2cc(CCn3ncc4nc(-n5cc(C(=O)O)cn5)nc(O)c43)ccc2c1", "note": "[Example 128]", "IC50": 12}
{"smiles": "O=C(O)c1cnn(-c2nc(O)c3c(n2)c(F)nn3C2CCCCC2)c1", "note": "[Example 478]", "IC50": 45}
{"smiles": "O=C(O)c1cnn(-c2nc(O)c3c(n2)c(C(F)(F)F)nn3CC2CCCCC2)c1", "note": "[Example 477]", "IC50": 180}
{"smiles": "O=C(O)c1cnn(-c2nc(O)c3c(cnn3Cc3ccc(-c4ccccc4C(F)(F)F)cc3)n2)c1", "note": "[Example 61]", "IC50": 12}
{"smiles": "Cc1c(CCn2ncc3nc(-n4cc(C(=O)O)cn4)nc(O)c32)ccc2ccccc12", "note": "[Example 126]", "IC50": 51}
{"smiles": "O=C(O)c1cnn(-c2nc(O)c3c(cnn3C[C@H]3CC[C@H](c4ccc(Cl)cc4)CC3)n2)c1", "note": "[Example 156]", "IC50": 20}
{"smiles": "Cc1ccc(C(C(C)C)n2ncc3nc(-n4cc(C(=O)O)cn4)nc(O)c32)cc1", "note": "(single isomer, unassigned) [Example 26]", "IC50": 66}
{"smiles": "O=C(O)c1cnn(-c2nc(O)c3c(cnn3Cc3ccc(-c4ccccc4)cc3F)n2)c1", "note": "[Example 78]", "IC50": 6.1}
{"smiles": "C[C@@H](c1ccc2ccccc2c1)n1ncc2nc(-n3cc(C(=O)O)cn3)nc(O)c21", "note": "[Example 31]", "IC50": 13}
{"tested_on": "Hep3B cells", "assay": "EPO production assay (ELISA of culture supernatant)", "format": "cell-based", "conditions": "Homo sapiens, 3 μmol/L test compound, 48 hours, relative to control (0.1% DMSO), read-out: EPO production stimulation rate with 3 μmol/L test compound", "in_short": "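Hep3B cells (40000/well) switched to MEM with 0.5% FBS and treated with compound (0.1% DMSO) for 48 h at 37 °C. Supernatant EPO measured by ELISA; value is fold stimulation at 3 μmol/L compound over unstimulated control.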"}
{"smiles": "Cc1ccc2cc(CCn3ncc4nc(-n5cc(C(=O)O)cn5)nc(O)c43)ccc2c1C", "note": "[Example 129]", "fold induction at 3 µM": 162}
{"smiles": "COc1ccccc1-c1ccc(Cn2ncc3nc(-n4cc(C(=O)O)cn4)nc(O)c32)cc1F", "note": "[Example 95]", "fold induction at 3 µM": 4.2}
{"smiles": "Cc1cccc(C)c1-c1ccc(Cn2ncc3nc(-n4cc(C(=O)O)cn4)nc(O)c32)cc1", "note": "[Example 68]", "fold induction at 3 µM": 9.5}
{"smiles": "C[C@@H](C1CCCCC1)n1nc(F)c2nc(-n3cc(C(=O)O)cn3)nc(O)c21", "note": "[Example 468]", "fold induction at 3 µM": 3.1}
{"smiles": "CC(C)(Cn1ncc2nc(-n3cc(C(=O)O)cn3)nc(O)c21)Oc1ccc2ccccc2c1", "note": "[Example 213]", "fold induction at 3 µM": 6.4}
{"smiles": "CC(C)(CCn1ncc2nc(-n3cc(C(=O)O)cn3)nc(O)c21)c1ccc2ccccc2c1", "note": "[Example 132]", "fold induction at 3 µM": 2.6}
{"smiles": "Cc1ccc(O[C@H]2CC[C@H](Cn3ncc4nc(-n5cc(C(=O)O)cn5)nc(O)c43)CC2)cc1", "note": "[Example 151]", "fold induction at 3 µM": 38}
{"smiles": "O=C(O)c1cnn(-c2nc(O)c3c(cnn3Cc3ccc(-c4ccccc4C(F)(F)F)cc3F)n2)c1", "note": "[Example 84]", "fold induction at 3 µM": 4.3}
{"smiles": "O=C(O)c1cnn(-c2nc(O)c3c(cnn3Cc3cc(F)cc(Br)c3)n2)c1", "note": "[Example 15]", "fold induction at 3 µM": 1.7}
{"smiles": "Cc1ccc(OC(C)(C)Cn2ncc3nc(-n4cc(C(=O)O)cn4)nc(O)c32)c2c1CCC2", "note": "[Example 211]", "fold induction at 3 µM": 8.9}
{"smiles": "C[C@@H](c1ccc(C(F)(F)F)cc1)n1ncc2nc(-n3cc(C(=O)O)cn3)nc(O)c21", "note": "[Example 19]", "fold induction at 3 µM": 10}
{"smiles": "CCc1ccc2cc(CCn3ncc4nc(-n5cc(C(=O)O)cn5)nc(O)c43)ccc2c1", "note": "[Example 128]", "fold induction at 3 µM": 168}
{"smiles": "O=C(O)c1cnn(-c2nc(O)c3c(n2)c(F)nn3C2CCCCC2)c1", "note": "[Example 478]", "fold induction at 3 µM": 1.8}
{"smiles": "O=C(O)c1cnn(-c2nc(O)c3c(n2)c(C(F)(F)F)nn3CC2CCCCC2)c1", "note": "[Example 477]", "fold induction at 3 µM": 2.5}
{"smiles": "O=C(O)c1cnn(-c2nc(O)c3c(cnn3Cc3ccc(-c4ccccc4C(F)(F)F)cc3)n2)c1", "note": "[Example 61]", "fold induction at 3 µM": 6}
{"smiles": "Cc1c(CCn2ncc3nc(-n4cc(C(=O)O)cn4)nc(O)c32)ccc2ccccc12", "note": "[Example 126]", "fold induction at 3 µM": 5.2}
{"smiles": "O=C(O)c1cnn(-c2nc(O)c3c(cnn3C[C@H]3CC[C@H](c4ccc(Cl)cc4)CC3)n2)c1", "note": "[Example 156]", "fold induction at 3 µM": 24}
{"smiles": "Cc1ccc(C(C(C)C)n2ncc3nc(-n4cc(C(=O)O)cn4)nc(O)c32)cc1", "note": "(single isomer, unassigned) [Example 26]", "fold induction at 3 µM": 3.4}
{"smiles": "O=C(O)c1cnn(-c2nc(O)c3c(cnn3Cc3ccc(-c4ccccc4)cc3F)n2)c1", "note": "[Example 78]", "fold induction at 3 µM": 30}
{"smiles": "C[C@@H](c1ccc2ccccc2c1)n1ncc2nc(-n3cc(C(=O)O)cn3)nc(O)c21", "note": "[Example 31]", "fold induction at 3 µM": 4.7}
